Assay results: patent EP0459561B1, “Dioxo-tetrahydroquinoline derivatives” (MERCK SHARP & DOHME LTD., priority 1990, dated 1991)

Biological target: AMPA receptors
Test: Displacement of 3H-AMPA binding, rat forebrain membranes
Details: read-out: IC₅₀ (displacement of ³H-AMPA binding)
Experimental: The ability of test compounds to displace ³H-AMPA binding to rat forebrain membranes was determined by the method of Honore et al., Neurosci. Lett., 1985, 54, 27.

With CCOC(=O)C1C(=O)Nc2cc([N+](=O)[O-])c([N+](=O)[O-])cc2C1=O (stereo not shown) [Example 50, Ethyl 6,7-Dinitro-2,4-dioxo-3-(1,2,3,4-tetrahydroquinoline)carboxylate] the IC50 was less than 50 µM.
